Results on ten compounds are retold here after ChEMBL document CHEMBL1909294, “Translating clinical findings into knowledge in drug safety evaluation--drug induced liver injury prediction system (DILIps)” (PLoS Comput Biol, 2011).

SMILES strings stand for the structures.

Data set [1] relates to Hepatotoxicity.
For data set [2], the system named is Hepatotoxicity. This is another data set of the same source.
The subject of data set [3] is Hepatotoxicity. The source holds these as a separate data set.
Data set [4] has as its system Hepatotoxicity. The source holds these as a separate data set.
Data set [5] concerns Hepatotoxicity. This is another data set of the same source.
In data set [6] the test system is Hepatotoxicity. This is another data set of the same source.
Data set [7] has as its system Hepatotoxicity. This is another data set of the same source.
Data set [8] relates to Hepatotoxicity. This is another data set of the same source.
Data set [9] concerns Hepatotoxicity. This is another data set of the same source.
Data set [10] has as its system Hepatotoxicity. The source holds these as a separate data set.
In data set [11] the test system is Hepatotoxicity. The source holds these as a separate data set.
Data set [12] relates to Hepatotoxicity. The source holds these as a separate data set.
Data set [13] has as its system Hepatotoxicity. The source holds these as a separate data set.
Data set [14] relates to Hepatotoxicity. The source holds these as a separate data set.
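Wherever HepSE Combined Scores is given: combined hepatic side effect score as listed in the training data of the Drug Induced Liver Injury Prediction System (DILIps).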
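Wherever HepSE bilirubinemia is given: bilirubinemia hepatic side effect score drawn from the DILIps training data, a prediction system for drug-induced liver injury; call rule not given here.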
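Wherever HepSE cholecystitis is given: Cholecystitis-related hepatic side effect score drawn from the DILIps (drug-induced liver injury prediction) training data set; call rule not given here.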
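Wherever HepSE cholelithiasis is given: hepatic side effect score for cholelithiasis, drawn from the DILIps training data for predicting drug-induced liver injury; call rule not given here.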
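Wherever HepSE cirrhosis is given: cirrhosis hepatic side effect score taken from the DILIps (drug-induced liver injury prediction) training set; call rule not given here.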
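Wherever HepSE elevated liver function tests is given: hepatic side effect score for raised liver function tests, as recorded in the DILIps training set used for predicting drug-induced liver injury.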
Wherever HepSE hepatic failure is given: call rule not given here.
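Wherever HepSE hepatic necrosis is given: score of hepatic side effects for hepatic necrosis, drawn from the training data of DILIps, a prediction system for drug-induced liver injury; call rule not given here.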
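Wherever HepSE hepatitis is given: Hepatitis-related hepatic side effect score taken from the training data of DILIps, a prediction system for drug-induced liver injury; call rule not given here.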
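Wherever HepSE hepatomegaly is given: hepatic side effect score for hepatomegaly, taken from the training set of the DILIps drug-induced liver injury prediction system; call rule not given here.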
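Wherever HepSE jaundice is given: Jaundice-related hepatic side-effect score drawn from the training data of the DILIps (drug-induced liver injury prediction system); call rule not given here.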
Wherever HepSE liver disease is given: call rule not given here.
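Wherever HepSE liver fatty is given: hepatic side effect score for fatty liver, taken from the DILIps training set for predicting drug-induced liver injury; call rule not given here.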
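Wherever HepSE liver function tests abnormal is given: hepatic side effect score taken from the DILIps (drug-induced liver injury prediction system) training data, here covering abnormal liver function test findings.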

Take `C[C@@H]1C[C@H]2[C@@H]3C[C@H](F)C4=CC(=O)C=C[C@]4(C)[C@@]3(F)[C@@H](O)C[C@]2(C)[C@@]1(O)C(=O)CO` [FLUMETHASONE]: the HepSE_liver fatty in the data set with Hepatotoxicity [1] came out at 0. In the data set with Hepatotoxicity [2], this compound showed a HepSE_hepatitis of 0. The compound also gave a HepSE_cholecystitis in the data set on Hepatotoxicity [3] of 0. Besides, in the data set with Hepatotoxicity [4], the “HepSE_Combined Scores” value was 0. For the same compound, in the data set with Hepatotoxicity [5], the HepSE_jaundice is listed as 0. The HepSE_bilirubinemia with Hepatotoxicity [6] was determined as 0. This compound also registered a HepSE_cirrhosis in the data set on Hepatotoxicity [7] of 0. The compound also registered a HepSE_hepatic necrosis in the data set with Hepatotoxicity [8] of 0. The HepSE_liver disease with Hepatotoxicity [9] turned out to be 0. The “HepSE_liver function tests abnormal” value with Hepatotoxicity [10] came to 0. The HepSE_hepatic failure in the data set on Hepatotoxicity [11] was found to be 0. The compound further came in with a HepSE_hepatomegaly in the data set with Hepatotoxicity [12] of 0. The HepSE_cholelithiasis in the data set with Hepatotoxicity [13] is 0. Further, in the data set with Hepatotoxicity [14], the “HepSE_elevated liver function tests” value is reported as 0.
In turn, `CNCCCC1c2ccccc2C=Cc2ccccc21` [PROTRIPTYLINE] registered a HepSE_liver fatty in the data set on Hepatotoxicity [1] (Liver) of 0. This compound also gave a HepSE_hepatitis in the data set with Hepatotoxicity [2] (Liver) of 0. The compound also displayed a HepSE_cholecystitis in the data set with Hepatotoxicity [3] (Liver) of 0. Also, the “HepSE_Combined Scores” value in the data set on Hepatotoxicity [4] (Liver) was found to be 1. The HepSE_jaundice with Hepatotoxicity [5] (Liver) amounted to 1. Besides, the HepSE_bilirubinemia with Hepatotoxicity [6] (Liver) is listed as 0. In the data set on Hepatotoxicity [7] (Liver), this compound gave a HepSE_cirrhosis of 0. Also, the HepSE_hepatic necrosis in the data set with Hepatotoxicity [8] (Liver) was found to be 0. This compound yielded a HepSE_liver disease in the data set with Hepatotoxicity [9] (Liver) of 0. The “HepSE_liver function tests abnormal” value in the data set with Hepatotoxicity [10] (Liver) is given as 0. The compound further came in with a HepSE_hepatic failure in the data set with Hepatotoxicity [11] (Liver) of 0. For the same compound, the HepSE_hepatomegaly in the data set with Hepatotoxicity [12] (Liver) turned out to be 0. In the data set with Hepatotoxicity [13] (Liver), the HepSE_cholelithiasis came out at 0. The “HepSE_elevated liver function tests” value in the data set on Hepatotoxicity [14] (Liver) is recorded as 0.
On to `N#Cc1cc(NC(=O)C(=O)O)c(Cl)c(NC(=O)C(=O)O)c1` [LODOXAMIDE], for which, in the data set on Hepatotoxicity [1], the HepSE_liver fatty amounted to 0. The HepSE_hepatitis in the data set with Hepatotoxicity [2] amounted to 0. Besides, in the data set with Hepatotoxicity [3], the HepSE_cholecystitis turned out to be 0. Moreover, the “HepSE_Combined Scores” value in the data set on Hepatotoxicity [4] amounted to 0. In the data set on Hepatotoxicity [5], this compound returned a HepSE_jaundice of 0. In addition, the HepSE_bilirubinemia in the data set on Hepatotoxicity [6] came out at 0. In addition, the HepSE_cirrhosis in the data set on Hepatotoxicity [7] came to 0. In the data set on Hepatotoxicity [8], this compound gave a HepSE_hepatic necrosis of 0. For the same compound, the HepSE_liver disease with Hepatotoxicity [9] is listed as 0. Further, in the data set on Hepatotoxicity [10], the “HepSE_liver function tests abnormal” value turned out to be 0. Also, in the data set on Hepatotoxicity [11], the HepSE_hepatic failure was 0. For the same compound, in the data set with Hepatotoxicity [12], the HepSE_hepatomegaly worked out at 0. Further, in the data set on Hepatotoxicity [13], the HepSE_cholelithiasis worked out at 0. Also, the “HepSE_elevated liver function tests” value in the data set with Hepatotoxicity [14] came out at 0.
`Nc1nnc(-c2cccc(Cl)c2Cl)c(N)n1` [LAMOTRIGINE] had a HepSE_liver fatty in the data set on Hepatotoxicity [1] of 0. In addition, in the data set on Hepatotoxicity [2], the HepSE_hepatitis was determined as 1. This compound had a HepSE_cholecystitis in the data set on Hepatotoxicity [3] of 0. Moreover, in the data set on Hepatotoxicity [4], the “HepSE_Combined Scores” value stood at 3. In addition, in the data set on Hepatotoxicity [5], the HepSE_jaundice came out at 0. Besides, the HepSE_bilirubinemia in the data set with Hepatotoxicity [6] stood at 1. The HepSE_cirrhosis with Hepatotoxicity [7] amounted to 0. For the same compound, the HepSE_hepatic necrosis with Hepatotoxicity [8] amounted to 0. For the same compound, the HepSE_liver disease in the data set on Hepatotoxicity [9] worked out at 0. Further, the “HepSE_liver function tests abnormal” value in the data set on Hepatotoxicity [10] turned out to be 1. The same compound registered a HepSE_hepatic failure with Hepatotoxicity [11] of 0. Besides, the HepSE_hepatomegaly with Hepatotoxicity [12] was determined as 0. This compound also displayed a HepSE_cholelithiasis in the data set on Hepatotoxicity [13] of 0. The “HepSE_elevated liver function tests” value in the data set with Hepatotoxicity [14] is 0.
Compound `CC(C)(C(=O)c1cccnc1)c1cccnc1` [METYRAPONE] had a HepSE_liver fatty with Hepatotoxicity [1] (Liver) of 0. For the same compound, the HepSE_hepatitis in the data set on Hepatotoxicity [2] (Liver) is 0. This compound gave a HepSE_cholecystitis in the data set on Hepatotoxicity [3] (Liver) of 0. In addition, the “HepSE_Combined Scores” value in the data set with Hepatotoxicity [4] (Liver) came out at 0. Further, the HepSE_jaundice with Hepatotoxicity [5] (Liver) is recorded as 0. Besides, the HepSE_bilirubinemia with Hepatotoxicity [6] (Liver) came to 0. In addition, the HepSE_cirrhosis in the data set with Hepatotoxicity [7] (Liver) amounted to 0. Also, the HepSE_hepatic necrosis in the data set with Hepatotoxicity [8] (Liver) was 0. The compound also displayed a HepSE_liver disease with Hepatotoxicity [9] (Liver) of 0. Moreover, the “HepSE_liver function tests abnormal” value in the data set on Hepatotoxicity [10] (Liver) was 0. The same compound had a HepSE_hepatic failure in the data set on Hepatotoxicity [11] (Liver) of 0. The compound further yielded a HepSE_hepatomegaly with Hepatotoxicity [12] (Liver) of 0. The compound further showed a HepSE_cholelithiasis in the data set on Hepatotoxicity [13] (Liver) of 0. In the data set with Hepatotoxicity [14] (Liver), the “HepSE_elevated liver function tests” value stood at 0.
On to `CN1CCN(C2=Nc3cc(Cl)ccc3Nc3ccccc32)CC1` [CLOZAPINE], for which the HepSE_liver fatty in the data set on Hepatotoxicity [1] is listed as 0. In addition, the HepSE_hepatitis in the data set with Hepatotoxicity [2] is recorded as 1. In addition, the HepSE_cholecystitis in the data set on Hepatotoxicity [3] came out at 0. Further, the “HepSE_Combined Scores” value in the data set on Hepatotoxicity [4] was 2. For the same compound, in the data set with Hepatotoxicity [5], the HepSE_jaundice was found to be 1. In the data set on Hepatotoxicity [6], this compound came in with a HepSE_bilirubinemia of 0. This compound registered a HepSE_cirrhosis in the data set on Hepatotoxicity [7] of 0. The HepSE_hepatic necrosis with Hepatotoxicity [8] is listed as 0. Moreover, the HepSE_liver disease in the data set on Hepatotoxicity [9] was found to be 0. For the same compound, in the data set on Hepatotoxicity [10], the “HepSE_liver function tests abnormal” value is reported as 0. Moreover, the HepSE_hepatic failure in the data set on Hepatotoxicity [11] is 0. Also, in the data set with Hepatotoxicity [12], the HepSE_hepatomegaly came out at 0. For the same compound, the HepSE_cholelithiasis with Hepatotoxicity [13] turned out to be 0. The “HepSE_elevated liver function tests” value in the data set with Hepatotoxicity [14] came to 0.
With `CN1CCC[C@@H]1CCO[C@](C)(c1ccccc1)c1ccc(Cl)cc1` [CLEMASTINE], in the data set with Hepatotoxicity [1], the HepSE_liver fatty came out at 0. In addition, in the data set with Hepatotoxicity [2], the HepSE_hepatitis was found to be 0. For the same compound, in the data set with Hepatotoxicity [3], the HepSE_cholecystitis amounted to 0. Also, in the data set with Hepatotoxicity [4], the “HepSE_Combined Scores” value is listed as 0. In addition, the HepSE_jaundice with Hepatotoxicity [5] amounted to 0. Further, in the data set with Hepatotoxicity [6], the HepSE_bilirubinemia came out at 0. Also, in the data set with Hepatotoxicity [7], the HepSE_cirrhosis is listed as 0. The compound further showed a HepSE_hepatic necrosis in the data set on Hepatotoxicity [8] of 0. For the same compound, the HepSE_liver disease with Hepatotoxicity [9] came out at 0. The “HepSE_liver function tests abnormal” value in the data set with Hepatotoxicity [10] (Liver) is 0. This compound also displayed a HepSE_hepatic failure with Hepatotoxicity [11] of 0. Moreover, the HepSE_hepatomegaly in the data set with Hepatotoxicity [12] is given as 0. In the data set on Hepatotoxicity [13], this compound showed a HepSE_cholelithiasis of 0. Further, the “HepSE_elevated liver function tests” value with Hepatotoxicity [14] (Liver) is on record as 0.
`CNC1(C)C2CCC(C2)C1(C)C` (stereo not given) [MECAMYLAMINE]: the HepSE_liver fatty with Hepatotoxicity [1] came to 0. Also, the HepSE_hepatitis in the data set with Hepatotoxicity [2] is given as 0. This compound gave a HepSE_cholecystitis in the data set on Hepatotoxicity [3] of 0. Besides, in the data set on Hepatotoxicity [4], the “HepSE_Combined Scores” value came out at 0. This compound also yielded a HepSE_jaundice in the data set on Hepatotoxicity [5] of 0. Besides, the HepSE_bilirubinemia in the data set on Hepatotoxicity [6] is on record as 0. The same compound registered a HepSE_cirrhosis in the data set with Hepatotoxicity [7] of 0. The HepSE_hepatic necrosis with Hepatotoxicity [8] was determined as 0. The HepSE_liver disease with Hepatotoxicity [9] came out at 0. Further, the “HepSE_liver function tests abnormal” value in the data set with Hepatotoxicity [10] is 0. The same compound registered a HepSE_hepatic failure in the data set with Hepatotoxicity [11] of 0. In the data set with Hepatotoxicity [12], this compound registered a HepSE_hepatomegaly of 0. For the same compound, the HepSE_cholelithiasis with Hepatotoxicity [13] turned out to be 0. The “HepSE_elevated liver function tests” value in the data set on Hepatotoxicity [14] was 0.
As for `CN1CCC(=C2c3ccccc3CCc3sccc32)CC1` [PIZOTYLINE], the HepSE_liver fatty in the data set on Hepatotoxicity [1] is 0. Moreover, the HepSE_hepatitis in the data set with Hepatotoxicity [2] amounted to 0. Also, the HepSE_cholecystitis in the data set on Hepatotoxicity [3] is given as 0. Further, in the data set with Hepatotoxicity [4], the “HepSE_Combined Scores” value was found to be 0. In addition, the HepSE_jaundice with Hepatotoxicity [5] was 0. This compound came in with a HepSE_bilirubinemia with Hepatotoxicity [6] of 0. In the data set on Hepatotoxicity [7], this compound showed a HepSE_cirrhosis of 0. In addition, the HepSE_hepatic necrosis with Hepatotoxicity [8] is 0. Also, in the data set on Hepatotoxicity [9], the HepSE_liver disease is recorded as 0. In addition, in the data set with Hepatotoxicity [10], the “HepSE_liver function tests abnormal” value worked out at 0. The compound also had a HepSE_hepatic failure in the data set on Hepatotoxicity [11] of 0. Further, the HepSE_hepatomegaly in the data set with Hepatotoxicity [12] worked out at 0. The HepSE_cholelithiasis with Hepatotoxicity [13] is reported as 0. Also, in the data set with Hepatotoxicity [14], the “HepSE_elevated liver function tests” value stood at 0.
With `COCCCOc1cc(C[C@@H](C[C@H](N)[C@@H](O)C[C@H](C(=O)NCC(C)(C)C(N)=O)C(C)C)C(C)C)ccc1OC`, the HepSE_liver fatty in the data set on Hepatotoxicity [1] turned out to be 0. The HepSE_hepatitis with Hepatotoxicity [2] is given as 0. The HepSE_cholecystitis in the data set with Hepatotoxicity [3] came to 0. Also, the “HepSE_Combined Scores” value in the data set with Hepatotoxicity [4] amounted to 0. Moreover, the HepSE_jaundice with Hepatotoxicity [5] was 0. This compound also gave a HepSE_bilirubinemia with Hepatotoxicity [6] of 0. Moreover, the HepSE_cirrhosis with Hepatotoxicity [7] is 0. The same compound had a HepSE_hepatic necrosis in the data set on Hepatotoxicity [8] of 0. For the same compound, the HepSE_liver disease in the data set on Hepatotoxicity [9] was 0. Moreover, the “HepSE_liver function tests abnormal” value in the data set with Hepatotoxicity [10] came to 0. In the data set with Hepatotoxicity [11], this compound showed a HepSE_hepatic failure of 0. In addition, the HepSE_hepatomegaly in the data set on Hepatotoxicity [12] is listed as 0. In addition, in the data set on Hepatotoxicity [13], the HepSE_cholelithiasis came out at 0. Also, the “HepSE_elevated liver function tests” value in the data set with Hepatotoxicity [14] is on record as 0.
